# According to patent US20140288052A1, “SUBSTITUTED BICYCLIC AZA-HETEROCYCLES AND ANALOGUES AS SIRTUIN MODULATORS” (GlaxoSmithKline, LLC, priority 2011, published 2014):
# What was measured:
# SIRT1 [1] = molecular target: T1, SIRT1 (Homo sapiens, UniProt Q96EB6); assay: Trp mass spectrometry assay of SIRT1 deacetylase activation; assay type: biochemical; details: Trp peptide substrate; for TRP EC1.5 (μM): concentration that results in 150% activation of SIRT1; for TRP % Fold Act: percent maximum fold activation relative to control (100%)
# T1 sequence (Q96EB6 1-747): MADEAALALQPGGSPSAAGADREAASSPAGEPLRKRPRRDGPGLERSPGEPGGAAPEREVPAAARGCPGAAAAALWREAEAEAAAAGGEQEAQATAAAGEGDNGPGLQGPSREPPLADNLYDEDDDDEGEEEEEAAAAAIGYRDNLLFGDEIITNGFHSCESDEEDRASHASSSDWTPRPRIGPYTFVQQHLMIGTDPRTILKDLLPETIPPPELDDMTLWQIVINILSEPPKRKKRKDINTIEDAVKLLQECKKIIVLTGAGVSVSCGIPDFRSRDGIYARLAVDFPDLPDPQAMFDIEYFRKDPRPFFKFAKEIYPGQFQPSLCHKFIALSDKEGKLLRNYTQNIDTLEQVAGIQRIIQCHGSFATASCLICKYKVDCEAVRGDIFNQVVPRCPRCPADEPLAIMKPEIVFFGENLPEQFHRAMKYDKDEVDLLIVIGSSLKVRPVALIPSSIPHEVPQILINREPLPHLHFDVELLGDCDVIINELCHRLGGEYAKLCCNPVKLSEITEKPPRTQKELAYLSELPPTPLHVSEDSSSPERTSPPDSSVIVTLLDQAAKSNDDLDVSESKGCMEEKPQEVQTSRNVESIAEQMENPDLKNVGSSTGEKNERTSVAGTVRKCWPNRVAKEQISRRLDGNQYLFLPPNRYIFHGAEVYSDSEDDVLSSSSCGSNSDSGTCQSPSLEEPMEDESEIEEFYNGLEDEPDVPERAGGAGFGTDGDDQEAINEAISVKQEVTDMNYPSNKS
# Procedure, shortened: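 His-tagged human SIRT1 (E. coli-expressed, 10 nM) was incubated with 0.5 μM Ac-RHKK(Ac)W-NH2 peptide and 120 μM βNAD+ for 25 min at 25 °C in HEPES pH 7.5, 1500 mM NaCl, with varying compound; formic acid quench. OAADPR or deacetylated peptide was quantified by mass spectrometry against DMSO control. EC1.5 (150% activation) and percent maximum activation were derived.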
# SIRT1 [2] = molecular target: T1, SIRT1; assay: TAMRA based mass spectrometry assay of SIRT1 deacetylase activation; assay type: biochemical; details: TAMRA peptide substrate; for TAMRA EC1.5 (μM): concentration that results in 150% activation of SIRT1; for TAMRA % Fold Act: percent maximum fold activation relative to control (100%)
# Procedure, shortened: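 E. coli-expressed N-terminal His-tagged human SIRT1 (10 nM) was incubated 25 min at 25 °C, pH 8 Tris-acetate buffer, with 0.5 μM TAMRA-labelled p53-derived acetyl-peptide, 120 μM NAD+ and varying compound; formic acid stop, mass-spec quantitation of deacetylated product vs DMSO controls. EC1.5 = concentration giving 150% activation.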
SMILES,TRP EC1.5 (μM) (SIRT1 [1]),TRP % Fold Act (SIRT1 [1]),TAMRA EC1.5 (μM) (SIRT1 [2]),TAMRA % Fold Act (SIRT1 [2])
O=C(Nc1ccnc2cc(-c3ccccc3C(F)(F)F)nn12)c1ccccn1 [Compound 59],B (EC1.5 1−25 μM),B (Fold Activation<350%),A (EC1.5<1 μM),A (Fold activation≧350%)
O=C(Nc1ccnc2cc(-c3ccccc3C(F)(F)F)nn12)c1ncccn1 [Compound 60],B (EC1.5 1−25 μM),B (Fold Activation<350%),A (EC1.5<1 μM),A (Fold activation≧350%)
O=C(Nc1ccnc2cc(-c3ccccc3C(F)(F)F)nn12)c1cnccn1 [Compound 61],C (EC1.5>25 μM),B (Fold Activation<350%),A (EC1.5<1 μM),A (Fold activation≧350%)
O=C(Nc1ccnc2cc(-c3ccccc3C(F)(F)F)nn12)c1ccncn1 [Compound 62],C (EC1.5>25 μM),B (Fold Activation<350%),B (EC1.5 1−25 μM),B (Fold Activation<350%)
O=C(Nc1ccnc2cc(-c3ccccc3C(F)(F)F)nn12)c1cccc(N2CCOCC2)n1 [Compound 63],C (EC1.5>25 μM),B (Fold Activation<350%),A (EC1.5<1 μM),B (Fold Activation<350%)
O=C(Nc1ccnc2cc(-c3ccccc3C(F)(F)F)nn12)c1cccc(N2CCC2)n1 [Compound 64],C (EC1.5>25 μM),B (Fold Activation<350%),A (EC1.5<1 μM),B (Fold Activation<350%)
O=C(Nc1ccnc2cc(-c3ccccc3C(F)(F)F)nn12)c1cccc(OCC(O)CO)n1 (stereo not shown) [Compound 65],A (EC1.5<1 μM),A (Fold activation≧350%),A (EC1.5<1 μM),A (Fold activation≧350%)
O=C(Nc1ccnc2cc(-c3cccc(C(F)(F)F)c3)nn12)c1cscn1 [Compound 66],C (EC1.5>25 μM),B (Fold Activation<350%),C (EC1.5>25 μM),B (Fold Activation<350%)
O=C(Nc1ccnc2cc(-c3cccc(C(F)(F)F)c3)nn12)c1ccccn1 [Compound 70],C (EC1.5>25 μM),B (Fold Activation<350%),C (EC1.5>25 μM),B (Fold Activation<350%)
O=C(Nc1ccnc2cc(-c3cccc(C(F)(F)F)c3)nn12)c1ncccn1 [Compound 71],C (EC1.5>25 μM),B (Fold Activation<350%),B (EC1.5 1−25 μM),B (Fold Activation<350%)
O=C(Nc1ccnc2cc(-c3cccc(C(F)(F)F)c3)nn12)c1cccc(OCC(O)CO)n1 (stereo not shown) [Compound 74],B (EC1.5 1−25 μM),B (Fold Activation<350%),B (EC1.5 1−25 μM),B (Fold Activation<350%)
O=C(Nc1ccccn1)c1ccnc2cc(-c3ccccc3C(F)(F)F)nn12 [Compound 75],B (EC1.5 1−25 μM),B (Fold Activation<350%),B (EC1.5 1−25 μM),A (Fold activation≧350%)
O=C(Nc1cccnc1)c1ccnc2cc(-c3ccccc3C(F)(F)F)nn12 [Compound 76],B (EC1.5 1−25 μM),B (Fold Activation<350%),B (EC1.5 1−25 μM),A (Fold activation≧350%)
O=C(Nc1ccncc1)c1ccnc2cc(-c3ccccc3C(F)(F)F)nn12 [Compound 77],B (EC1.5 1−25 μM),B (Fold Activation<350%),B (EC1.5 1−25 μM),A (Fold activation≧350%)
O=C(Nc1ccncn1)c1ccnc2cc(-c3ccccc3C(F)(F)F)nn12 [Compound 78],B (EC1.5 1−25 μM),B (Fold Activation<350%),A (EC1.5<1 μM),A (Fold activation≧350%)
O=C(Nc1nccs1)c1ccnc2cc(-c3ccccc3C(F)(F)F)nn12 [Compound 79],A (EC1.5<1 μM),B (Fold Activation<350%),B (EC1.5 1−25 μM),B (Fold Activation<350%)
Cc1cnc(NC(=O)c2ccnc3cc(-c4ccccc4C(F)(F)F)nn23)s1 [Compound 80],C (EC1.5>25 μM),B (Fold Activation<350%),B (EC1.5 1−25 μM),B (Fold Activation<350%)
Cc1csc(NC(=O)c2ccnc3cc(-c4ccccc4C(F)(F)F)nn23)n1 [Compound 81],B (EC1.5 1−25 μM),B (Fold Activation<350%),B (EC1.5 1−25 μM),B (Fold Activation<350%)
O=C(Nc1cccc(N2CCOCC2)n1)c1ccnc2cc(-c3ccccc3C(F)(F)F)nn12 [Compound 82],C (EC1.5>25 μM),B (Fold Activation<350%),A (EC1.5<1 μM),A (Fold activation≧350%)
O=C(Nc1cccc(CN2CCOCC2)n1)c1ccnc2cc(-c3ccccc3C(F)(F)F)nn12 [Compound 83],B (EC1.5 1−25 μM),B (Fold Activation<350%),A (EC1.5<1 μM),A (Fold activation≧350%)
O=C(Nc1cccnc1)c1ccnc2cc(-c3cccc(C(F)(F)F)c3)nn12 [Compound 85],C (EC1.5>25 μM),B (Fold Activation<350%),C (EC1.5>25 μM),B (Fold Activation<350%)
O=C(Nc1ccncc1)c1ccnc2cc(-c3cccc(C(F)(F)F)c3)nn12 [Compound 86],C (EC1.5>25 μM),B (Fold Activation<350%),C (EC1.5>25 μM),B (Fold Activation<350%)
O=C(Nc1nccs1)c1ccnc2cc(-c3cccc(C(F)(F)F)c3)nn12 [Compound 87],C (EC1.5>25 μM),B (Fold Activation<350%),C (EC1.5>25 μM),B (Fold Activation<350%)
Cc1cnc(NC(=O)c2ccnc3cc(-c4cccc(C(F)(F)F)c4)nn23)s1 [Compound 88],C (EC1.5>25 μM),B (Fold Activation<350%),B (EC1.5 1−25 μM),B (Fold Activation<350%)
Cc1csc(NC(=O)c2ccnc3cc(-c4cccc(C(F)(F)F)c4)nn23)n1 [Compound 89],C (EC1.5>25 μM),B (Fold Activation<350%),C (EC1.5>25 μM),B (Fold Activation<350%)
